Assay results: patent publication US12037344B2, “NLRP3 modulators” (INNATE TUMOR IMMUNITY, INC., priority 2018, dated 2024)

How the values were obtained:
[1] = system: THP-1 cells; assay: Measurement of IL-1β production, hTRF protocol (second alternative procedure), THP-1 cells; assay type: cell-based, human; conditions: Homo sapiens, THP-1, IL-1β production, human cells; read-out: NLRP3 hILIB EC50
Summary of the method: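 Compounds, dilution series starting at a final 10 μM, were incubated 2 hours at 37° C with PMA-differentiated THP-1 cells (50 ng/ml overnight; 50,000 cells/well, 2% FBS RPMI). Released IL-1β quantified in supernatant by hTRF kit with 1:40 antibody dilution, 4° C overnight, 665/615 nm ratio.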

[2] = molecular target: T1, TLR7 (Homo sapiens, UniProt Q9NYK1); assay: In vitro human TLR7 binding reporter assay (HEK-Blue, NF-kB/AP1-inducible SEAP); assay type: cell-based; conditions: activity range, read-out: TLR7 Agonist EC50
T1 construct: human HEK-Blue cells co-expressing a TLR7 or TLR8 gene
T1 sequence (Q9NYK1 27-1049): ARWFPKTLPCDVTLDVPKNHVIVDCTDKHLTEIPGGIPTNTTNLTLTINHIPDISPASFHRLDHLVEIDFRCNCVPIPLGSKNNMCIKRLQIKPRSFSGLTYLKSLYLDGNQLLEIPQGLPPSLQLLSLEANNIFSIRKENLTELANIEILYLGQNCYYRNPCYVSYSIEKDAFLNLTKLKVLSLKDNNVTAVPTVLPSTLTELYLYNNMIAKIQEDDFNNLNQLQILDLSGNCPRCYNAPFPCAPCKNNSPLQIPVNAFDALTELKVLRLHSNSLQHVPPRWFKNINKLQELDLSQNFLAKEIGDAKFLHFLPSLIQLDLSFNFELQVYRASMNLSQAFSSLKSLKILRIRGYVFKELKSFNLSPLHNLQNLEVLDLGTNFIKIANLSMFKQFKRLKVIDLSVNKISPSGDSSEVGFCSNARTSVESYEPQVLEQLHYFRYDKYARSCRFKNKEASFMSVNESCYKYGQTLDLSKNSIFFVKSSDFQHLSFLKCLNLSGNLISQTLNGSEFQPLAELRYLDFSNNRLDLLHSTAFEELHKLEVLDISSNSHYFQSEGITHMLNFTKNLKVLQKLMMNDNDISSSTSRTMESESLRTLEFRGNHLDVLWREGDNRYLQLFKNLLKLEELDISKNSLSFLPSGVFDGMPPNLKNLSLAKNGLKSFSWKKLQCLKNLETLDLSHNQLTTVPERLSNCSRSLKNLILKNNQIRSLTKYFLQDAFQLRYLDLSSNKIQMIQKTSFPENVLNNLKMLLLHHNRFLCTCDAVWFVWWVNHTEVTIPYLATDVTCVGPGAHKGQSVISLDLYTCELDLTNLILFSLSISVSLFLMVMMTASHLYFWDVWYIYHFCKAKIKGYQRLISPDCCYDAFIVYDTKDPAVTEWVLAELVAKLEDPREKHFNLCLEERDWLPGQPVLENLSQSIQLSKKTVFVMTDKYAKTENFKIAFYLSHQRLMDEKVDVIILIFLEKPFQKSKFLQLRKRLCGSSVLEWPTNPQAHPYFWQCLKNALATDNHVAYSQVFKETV
Summary of the method: (§1)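 HEK-Blue cells expressing human TLR7 or TLR8 with NF-kB/AP1-inducible SEAP reporter, plated 24 h, then compound-treated 18 h at 37° C, 5% CO2. EC50 normalized to 100% Ymax set by 50 μM reference standard.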

[3] = molecular target: T2, TLR8 (Homo sapiens, UniProt Q9NR97); assay: In vitro human TLR8 binding reporter assay (HEK-Blue, NF-kB/AP1-inducible SEAP); assay type: cell-based; conditions: activity range, read-out: TLR8 Agonist EC50
T2 construct: human HEK-Blue cells co-expressing a TLR7 or TLR8 gene
T2 sequence (Q9NR97 27-1041): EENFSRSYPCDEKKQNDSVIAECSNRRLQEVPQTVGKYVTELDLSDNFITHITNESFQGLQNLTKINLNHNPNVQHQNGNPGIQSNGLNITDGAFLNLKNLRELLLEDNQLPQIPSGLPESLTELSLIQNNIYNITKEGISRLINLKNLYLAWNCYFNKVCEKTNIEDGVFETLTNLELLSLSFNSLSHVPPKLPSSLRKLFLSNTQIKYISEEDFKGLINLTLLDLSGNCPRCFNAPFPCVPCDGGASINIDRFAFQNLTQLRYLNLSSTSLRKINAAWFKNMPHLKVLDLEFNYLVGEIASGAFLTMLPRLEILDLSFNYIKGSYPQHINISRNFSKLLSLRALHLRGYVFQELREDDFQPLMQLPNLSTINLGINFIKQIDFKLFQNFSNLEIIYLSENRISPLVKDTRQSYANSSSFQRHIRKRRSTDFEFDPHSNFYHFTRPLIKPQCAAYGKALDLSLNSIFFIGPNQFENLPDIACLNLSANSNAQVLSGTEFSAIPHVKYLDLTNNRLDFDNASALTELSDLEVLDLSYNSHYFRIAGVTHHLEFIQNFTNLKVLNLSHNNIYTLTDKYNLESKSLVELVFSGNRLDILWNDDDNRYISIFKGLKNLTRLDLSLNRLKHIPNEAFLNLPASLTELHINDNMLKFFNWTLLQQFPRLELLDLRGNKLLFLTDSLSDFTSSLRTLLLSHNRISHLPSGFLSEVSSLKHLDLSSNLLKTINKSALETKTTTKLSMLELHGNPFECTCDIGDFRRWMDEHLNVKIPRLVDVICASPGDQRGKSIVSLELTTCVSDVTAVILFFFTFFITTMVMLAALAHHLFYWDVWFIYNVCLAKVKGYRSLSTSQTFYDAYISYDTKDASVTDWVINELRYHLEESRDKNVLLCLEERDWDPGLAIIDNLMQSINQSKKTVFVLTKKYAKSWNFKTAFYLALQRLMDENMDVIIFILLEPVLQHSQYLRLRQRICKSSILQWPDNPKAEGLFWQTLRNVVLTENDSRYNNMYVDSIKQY
Summary of the method: as §1

## Nc1nc2cc(-c3cc[nH]n3)ccc2c2[nH]c(CNC(=O)C3CCCCO3)cc12 (stereo not drawn) [Example 413]
[1]
  EC50: 1.92 µM
[2]
  EC50: > 100 µM
[3]
  EC50: > 100 µM

## Nc1nc2cc(-c3cc[nH]n3)ccc2c2[nH]c(CCNC(=O)C3CCCO3)cc12 (stereo not drawn) [Example 414]
[1]
  EC50: 2.8 µM
[2]
  EC50: > 100 µM
[3]
  EC50: > 100 µM

## Nc1nc2cc(-c3cc[nH]n3)ccc2c2[nH]c(CCNC(=O)C3CCCCO3)cc12 (stereo not drawn) [Example 415]
[1]
  EC50: 1.89 µM
[2]
  EC50: > 100 µM
[3]
  EC50: > 100 µM

## Nc1nc2cc(-c3cc[nH]n3)ccc2c2[nH]c(CCNC(=O)c3cc(F)ccn3)cc12 [Example 416]
[1]
  EC50: 0.15 µM
[2]
  EC50: > 100 µM
[3]
  EC50: > 100 µM

## Nc1nc2cc(-c3cc[nH]n3)ccc2c2[nH]c(CCNC(=O)c3ccc(F)cn3)cc12 [Example 417]
[1]
  EC50: 0.16 µM
[2]
  EC50: > 100 µM
[3]
  EC50: > 100 µM

## Nc1nc2cc(-c3cc[nH]n3)ccc2c2[nH]c(CNC(=O)c3ccc(F)cn3)cc12 [Example 418]
[1]
  EC50: 3.65 µM
[2]
  EC50: > 100 µM
[3]
  EC50: > 100 µM

## COCCNCc1cc2c(N)nc3cc(-c4cc[nH]n4)ccc3c2[nH]1 [Example 419]
[1]
  EC50: 0.35 µM
[2]
  EC50: > 100 µM
[3]
  EC50: > 100 µM

## CCNCc1cc2c(N)nc3cc(-c4cc[nH]n4)ccc3c2[nH]1 [Example 420]
[1]
  EC50: 0.51 µM
[2]
  EC50: > 100 µM
[3]
  EC50: > 100 µM

## Nc1nc2cc(-c3cc[nH]n3)ccc2c2[nH]c(CN[C@H]3CCOC3)cc12 [Example 421]
[1]
  EC50: 0.46 µM
[2]
  EC50: > 100 µM
[3]
  EC50: > 100 µM

## Nc1nc2cc(-c3cc[nH]n3)ccc2c2[nH]c(CN[C@@H]3CCOC3)cc12 [Example 422]
[1]
  EC50: 0.14 µM
[2]
  EC50: > 100 µM
[3]
  EC50: > 100 µM

## Cc1[nH]c2c(c(N)nc3cc(-c4cc[nH]n4)ccc32)c1C [Example 423, 2,3-dimethyl-7-(1H-pyrazol-3-yl)-1H-pyrrolo[3,2-c]quinolin-4-amine]
[1]
  EC50: 0.62 µM
[2]
  EC50: > 100 µM
[3]
  EC50: > 100 µM

## CC(=O)NC(C)Cn1cc2c(N)nc3cc(-n4cccn4)ccc3c2n1 (stereo not drawn) [Example 424]
[1]
  EC50: 3.21 µM
[2]
  EC50: > 100 µM
[3]
  EC50: > 100 µM

## CC(=O)NC(C)CCn1cc2c(N)nc3cc(-n4cccn4)ccc3c2n1 (stereo not drawn) [Example 425]
[1]
  EC50: 5.73 µM
[2]
  EC50: > 100 µM
[3]
  EC50: > 100 µM

## CC(N)CCn1cc2c(N)nc3cc(-n4cccn4)ccc3c2n1 (stereo not drawn) [Example 426]
[1]
  EC50: 1.89 µM
[2]
  EC50: > 100 µM
[3]
  EC50: > 100 µM

## CC(C)(O)CCn1ncc2c(N)nc3cc(-c4cc[nH]n4)ccc3c21 [Example 427]
[1]
  EC50: 2.01 µM
[2]
  EC50: > 100 µM
[3]
  EC50: > 100 µM

## CC(O)Cn1ncc2c(N)nc3cc(-c4cc[nH]n4)ccc3c21 (stereo not drawn) [Example 428]
[1]
  EC50: 1.81 µM
[2]
  EC50: > 100 µM
[3]
  EC50: > 100 µM

## CC(=O)NC(C)Cn1ncc2c(N)nc3cc(-c4cc[nH]n4)ccc3c21 (stereo not drawn) [Example 429]
[1]
  EC50: 13 µM
[2]
  EC50: > 100 µM
[3]
  EC50: > 100 µM

## Nc1nc2cc(-c3cc[nH]n3)ccc2c2c1cnn2CCN1CC(F)(F)C1 [Example 430]
[1]
  EC50: 1.9 µM
[2]
  EC50: > 100 µM
[3]
  EC50: > 100 µM
